Measurements reported in patent publication US20050119324A1, “Methods of treating atherosclerosis using NF-kB inhibitors” (Wyeth, priority 2003, published 2005).

How the values were obtained:
[1] = Lipoprotein determinations (total cholesterol, VLDL, HDL by FPLC) in ovariectomized apoE KO mice on a high fat diet; format: in vivo; conditions: atherogenic diet 6 weeks, oral dosing in feed
Description: All animal procedures were performed under strict compliance to IACUC guidelines. Four to six-week old female apolipoprotein E-deficient C57/B1J (apo E KO) mice were ovariectomized by the vendor (Taconic) and delivered to Wyeth within 2 days of surgery. The animals were housed in shoe-box cages and were allowed ad lib food and water. After 3 days acclimation, the animals were randomized by weight into 8 groups (N=12 mice per group). The animals were dosed in the feed with the indicated compounds during the entire course of the study. Dosing at the indicated levels was achieved by blending the compounds with a sucrose vehicle (30 g per 2 kg feed) prior to mixing into the feed. Ethinyl estradiol was used as a positive reference compound and was dosed at 12 μg/kg/d. Other groups of animals were dosed with the compounds of Example 3 or Example 5 at either 10 or 25 mg/kg/d. Control animals received vehicle (sucrose) alone in the feed. The quantity of compound added to the feed was based on the food consumption rate and the body weights of the animals, which was determined every week. The feeders employed prevented any spillage, so that the food consumption rate was accurate. The animals were fed a Casein-based rodent chow meal (Purina #5K96M) for the first week of the study. The animals were then challenged with a casein-based high fat (HF) diet for week 2 to week 7 of the study. The HF diet (#591-A) was prepared by Purina and contained 1.5% cholesterol, 20% fat as cocoa butter and contained no cholic acid. At the end of the study period, the animals were euthanized and plasma samples obtained. The aortas were perfused via the left ventricle first with buffered saline and then with neutral buffered 10% formalin solution.
Lipoprotein Determinations—Total cholesterol and triglycerides were determined using enzymatic methods with commercially available kits from Boehringer Mannheim and Wako Biochemicals, respectively, and analyzed with the Boehringer Mannheim Hitachii 911 Analyzer. Separation and quantitation of plasma lipoproteins were performed using FPLC size fractionation. Briefly, 50-100 μl serum was filtered and injected into Superose 12 and Superose 6 columns connected in series and eluted at a constant flow rate using 0.15 M NaCl. Areas of each curve representing VLDL, LDL and HDL were integrated using Waters Millennium™ software, and each lipoprotein fraction was quantified by multiplying the Total Cholesterol value by the relative percent area of each respective chromatogram peak.

[2] = test system: apolipoprotein E-deficient C57/B1J (apo E KO) mice; assay: Aortic atherosclerosis quantification (Oil Red O, en face, aortic arch) in ovariectomized apoE KO mice on a high fat diet; format: in vivo; conditions: atherogenic diet 6 weeks, oral dosing in feed, EE 12 μg/kg/d, Examples 3 or 5 at 10 or 25 mg/kg/d, N=12
Description: All animal procedures were performed under strict compliance to IACUC guidelines. Four to six-week old female apolipoprotein E-deficient C57/B1J (apo E KO) mice were ovariectomized by the vendor (Taconic) and delivered to Wyeth within 2 days of surgery. The animals were housed in shoe-box cages and were allowed ad lib food and water. After 3 days acclimation, the animals were randomized by weight into 8 groups (N=12 mice per group). The animals were dosed in the feed with the indicated compounds during the entire course of the study. Dosing at the indicated levels was achieved by blending the compounds with a sucrose vehicle (30 g per 2 kg feed) prior to mixing into the feed. Ethinyl estradiol was used as a positive reference compound and was dosed at 12 μg/kg/d. […] The quantity of compound added to the feed was based on the food consumption rate and the body weights of the animals, which was determined every week. […]
Aortic Atherosclerosis Quantification-The mice were euthanized by anesthesia overdose and the vascular tree was perfused first with 2 ml phosphate buffered saline (pH 7.4), then with 2 ml formalin. For quantification of aortic lesions, aortas were carefully isolated and placed in formalin fixative for 48-72 hours before handling. […] The lesions were quantified en face after staining along the aortic arch using the Image-Pro Plus, Media Cybernetics software. […]

melting point [°C] | Compound | VLDL-C (FIG. 2) [1] | serum HDL-C (FIG. 2) [1] | serum total cholesterol (FIG. 2) [1] | extent of aortic fatty streak involvement [2]
188 | CC1c2cc(F)ccc2-c2ccccc2N1S(=O)(=O)c1ccc(O)cc1 (stereo not shown) [Example 3, 4-[(8-Fluoro-6-methylphenanthridin-5(6H)-yl)sulfonyl]phenol] | increase | significantly lower | no effect | significant decrease
186 to 188 | COc1cc(OC)cc(N2CCN(C(=O)[C@](C)(C#N)[C@H](c3ccccc3OC)c3cccc4ccccc34)CC2)c1 [Example 4, (S)-3-[4-(3,5-dimethoxyphenyl)piperazin-1-yl]-2-[(S)-(2-methoxyphenyl)(1-naphthyl)methyl]-2-methyl-3-oxopropanenitrile] |  |  |  | 
 | COc1ccccc1[C@H](c1cccc2ccccc12)[C@@](C)(C#N)C(=O)N1CCC(c2cccc(C(F)(F)F)c2)CC1 [Example 5, (S,S)-3-(2-methoxyphenyl)-2-methyl-3-(1-naphthyl)-2-({4-[3-(trifluoromethyl)phenyl]piperidin-1-yl}carbonyl)propanenitrile] | increase | significantly lower | no effect | significant decrease
